In ChEMBL document CHEMBL4007412, “Design, Synthesis, and Biological Evaluation of Mitochondria-Targeted Flavone-Naphthalimide-Polyamine Conjugates with Antimetastatic Activity” (J Med Chem, 2017):
Calls of active or inactive are those of the source.

How the values were obtained:
HepG2 [1] = assay: Effect on putrescine levels in human HepG2 cells at 20 uM after 24 hrs by HPLC analysis; type: functional, cell-based
HepG2 [2] = assay: Disruption of mitochondrial membrane potential in human HepG2 cells at 20 uM after 24 hrs by Rhodamine123 staining-based flow cytometry; type: functional, cell-based
SMMC-7721 [3] = assay: Induction of intracellular ROS generation in human SMMC7721 cells at 20 uM after 8 hrs by DCFH-DA staining based HCS analysis relative to control; type: functional
HepG2 [4] = assay: Cytotoxicity against human HepG2 cells assessed as effect on cell viability at 5 to 10 uM after 24 hrs in presence of spermidine by MTT assay; type: functional, cell-based
Mus musculus [5] = assay: Toxicity in Kunming mouse xenografted with […] cells assessed as effect on lung weight index at 3 mg/kg, iv dosed every day starting from day 8 after tumor cell inoculation; type: organism-based; settings: in vivo
HepG2 [6] = assay: Induction of p53 expression in human HepG2 cells up to 20 uM after 24 hrs by Western blot analysis relative to control; type: functional, cell-based
[7] = Drug uptake in human SMMC7721 cells assessed as PAT-mediated cellular uptake after 8 hrs by HCS analysis; type: ADME, cell-based
HepG2 [8] = assay: Induction of ROS generation in human HepG2 cells assessed as depletion of GSH content at 20 uM after 24 hrs by GSSG assay; type: functional, cell-based
HepG2 [9] = assay: Induction of apoptosis in human HepG2 cells assessed as late apoptotic cells at 20 uM after 24 hrs by Annexin V-FITC/propidium iodide staining based flow cytometric analysis (reference value: 8.96 %); type: functional
HepG2 [10] = assay: Cytotoxicity against human HepG2 cells assessed as effect on cell viability at 5 to 20 uM after 24 hrs in absence of spermidine by MTT assay; type: functional, cell-based
SMMC-7721 [11] = assay: Antiproliferative activity against human SMMC7721 cells assessed as reduction in cell viability at 20 uM pre-treated with NAC after 48 hrs by MTT assay; type: functional, cell-based
[12] = Drug uptake in human HepG2 cells assessed as PAT-mediated compound uptake by measuring fluorescent intensity at 5 to 10 uM after 6 hrs in presence of spermidine by HCS analysis; type: ADME, cell-based
HepG2 [13] = assay: Disruption of mitochondrial membrane potential in human HepG2 cells at 20 uM after 24 hrs by JC-1 staining based flow cytometry; type: functional, cell-based
SMMC-7721 [14] = assay: Effect on SSAT expression in human SMMC7721 cells at 5 to 20 uM after 24 hrs by Western blot analysis; type: functional, cell-based
HepG2 [15] = assay: Induction of apoptosis in human HepG2 cells assessed as up-regulation of caspase 3 expression up to 20 uM after 24 hrs by Western blot analysis; type: functional, cell-based
SMMC-7721 [16] = assay: Antimigratory activity against human SMMC7721 cells incubated for 24 hrs by transwell assay; type: functional, cell-based
SMMC-7721 [17] = assay: Effect on putrescine levels in human SMMC7721 cells at 20 uM after 24 hrs by HPLC analysis; type: functional, cell-based
HepG2 [18] = assay: Antiproliferative activity against human HepG2 cells assessed as reduction in cell viability at 20 uM pre-treated with TOC after 48 hrs by MTT assay; type: functional, cell-based
SMMC-7721 [19] = assay: Antiproliferative activity against human SMMC7721 cells assessed as reduction in cell viability at 20 uM pre-treated with TOC after 48 hrs by MTT assay; type: functional, cell-based
H22 = assay: Antimetastatic activity against […] xenografted in pulmonary metastasis Kunming mouse model assessed as reduction in tumor metastatic nodules at 3 mg/kg, iv dosed every day starting from day 8 after tumor cell inoculation; type: functional; set-up: scale not given: the % may be the effect or the level left
Mus musculus [20] = assay: Toxicity in Kunming mouse xenografted with […] cells assessed as effect on liver weight index at 3 mg/kg, iv dosed every day starting from day 8 after tumor cell inoculation; type: organism-based; settings: in vivo
SMMC-7721 [21] = assay: Effect on spermidine levels in human SMMC7721 cells at 20 uM after 24 hrs by HPLC analysis; type: functional, cell-based
HepG2 [22] = assay: Induction of cleaved caspase 3 expression in human HepG2 cells up to 20 uM pre-treated with NAC measured after 24 hrs by Western blot analysis; type: functional, cell-based
SMMC-7721 [23] = assay: Inhibition of colony formation of human SMMC7721 cells up to 20 uM […] by crystal violet staining based colony formation assay; type: functional, cell-based
HepG2 [24] = assay: Cytotoxicity against human HepG2 cells assessed as cell growth inhibition after 48 hrs by MTT assay; type: functional, cell-based; settings: HepG2, 48 h
Mus musculus [25] = assay: Toxicity in Kunming mouse xenografted with […] cells assessed as effect on kidney weight index at 3 mg/kg, iv dosed every day starting from day 8 after tumor cell inoculation; type: organism-based; settings: in vivo
HepG2 [26] = assay: Induction of apoptosis in human HepG2 cells assessed as upregulation of cleaved caspase 3 after 24 hrs by immunofluorescence analysis; type: functional, cell-based
HepG2 [27] = assay: Effect on SSAT expression in human HepG2 cells at 5 to 20 uM after 24 hrs by Western blot analysis; type: functional, cell-based
HepG2 [28] = assay: Induction of apoptosis in human HepG2 cells assessed as early apoptotic cells at 20 uM after 24 hrs by Annexin V-FITC/propidium iodide staining based flow cytometric analysis (reference value: 2.09 %); type: functional
HepG2 [29] = assay: Induction of p53 expression in human HepG2 cells up to 20 uM pre-treated with NAC after 24 hrs by Western blot analysis relative to control; type: functional, cell-based
HepG2 [30] = assay: Induction of apoptosis in human HepG2 cells assessed as viable cells at 20 uM after 24 hrs by Annexin V-FITC/propidium iodide staining based flow cytometric analysis (reference value: 86 %); type: functional; settings: HepG2, 24 h, read-out: Activity
[31] = Drug localization in human HepG2 cell membranes at 10 uM after 8 hrs by DiO-staining based microscopic analysis; type: ADME

Cl.Cl.NCCCCNCCCCN1C(=O)c2cccc3c(-c4cc(=O)c5ccccc5o4)ccc(c23)C1=O
10.3 µM: IC50 (HepG2 [24])
active: Activity (HepG2 [2]) | Activity (HepG2 [6]) Dose-dependent effect | Activity (HepG2 [8]) | Activity (HepG2 [10]) | Activity (HepG2 [13]) | Activity (HepG2 [15]) | Activity (SMMC-7721 [16]) Dose-dependent effect | Activity (SMMC-7721 [23]) | Activity (HepG2 [26]) Dose-dependent effect
26.6%: Activity (HepG2 [9]) | Activity (HepG2 [28])
Not Active: Drug uptake [12] | Drug uptake [31]
37.8%: viability at 20 µM (HepG2 [30])
Non-Toxic: Activity (Mus musculus [5]) | Activity (Mus musculus [20]) | Activity (Mus musculus [25])
inactive: Activity (HepG2 [1]) | Activity (HepG2 [4]) | Activity (SMMC-7721 [11]) | Activity (SMMC-7721 [14]) | Activity (SMMC-7721 [17]) | Activity (HepG2 [18]) | Activity (SMMC-7721 [19]) | Activity (SMMC-7721 [21]) | Activity (HepG2 [22]) | Activity (HepG2 [27]) | Activity (HepG2 [29])
77.9%: Activity (H22)
2.2: fold change (FC) (SMMC-7721 [3])
Dose-dependent effect: Drug uptake [7]
